Series [1] has as its system bone marrow from the femur. To be noted: for Gross pathological observations: Bone Marrow Color: femur at day +5; for appearance of the femur (bone marrow): immunosuppression induced by 5-fluorouracil (5-FU) 80 mg/kg i.v., compared with the cyclophosphamide results (red femur). As for the experimental part: Female C57BL/6 mice, 6 to 8 week old, were immunosuppressed by treatment with 200 mg/kg of cyclophosphamide (CY) or 80 mg/kg 5-fluorouracil (5-FU) administered intravenously at day 0. To examine the immunoprotective effect of MCT or other compounds, mice were pre-treated orally at day −3, −2 and −1 at day 0 with the compound. Mice were sacrificed at day +5 by cardiac puncture and cervical dislocation. Then, a gross pathological observation of the femurs (as a source of bone marrow cells) was recorded.

The subject of the next series is spleen red cell. Briefly: Chemoprotection study: spleen red cell count in cyclophosphamide treated mice. The format is in vivo, C57BL/6 mice. The source says:
Effect of tricaprin, capric acid and sodium caprate on in vivo induction of immune cell proliferation or protection was undertaken following the protocol described in example 1. After the sacrifice, tissues were crushed in PBS buffer and cells were counted on a hemacytometer. Effect of oral and intravenous administration of sodium caprate on in vivo induction of immune cell proliferation or protection was undertaken following the protocol described in example 1. After sacrifice, tissues were crushed in PBS buffer and cells were counted on a hemacytometer.

The next series has as its system peripheral blood cell. Nature of the series: Chemoprotection study: number of peripheral blood cell. The series is classed as in vivo, C57BL/6 mice. To be noted: sodium caprate used alone. An excerpt:
(§1) Effect of oral and intravenous administration of sodium caprate and GM-CSF on in vivo induction of immune cell proliferation or protection was undertaken following the protocol described in example 1. After sacrifice, tissues were crushed in PBS buffer and cells were counted on a hemacytometer.

A further series has as its system bone marrow cells. Nature of the series: Anemia model: ex vivo bone marrow colony forming unit (CFU) formation assay. The format is in vivo, BALB/c mice. The settings on record: i.v. pre-treatment. The method, then:
To examine the immunoprotective or immunorestorative effect of sodium caprate in an anemia model, BALB/c mice were pre-treated intravenously at day −3, −2 and −1 with compound. Anemia was induced by treatment with 60 mg/kg phenylhydrazine administered intraperitonealy at day 0 to female BALB/c mice, 6 to 8 week old. Mice were sacrificed at day +6 by cardiac puncture and cervical dislocation. Then, bone marrow cells were obtained from femur. Cells were flushed and washed with PBS. Based on the viable cells count, the cells were resuspended at a concentration of 5×10^5 cells per ml in IMDM media supplemented with 2% FBS. From these cells, two replicates of 3×10^4 cells per dish were plated in Methocult medium so that a colony forming unit (CFU) formation assay could be undertaken. CFU-E and BFU-E were recorded after 2 to 3 days culture. CFU-GM and CFU-GEMM were recorded after 14 to 16 days culture.

A further series has as its system bone marrow red cell. Nature of the series: Chemoprotection study: bone marrow red cell count in cyclophosphamide treated mice, comparison with GM-CSF. The series is classed as in vivo, C57BL/6 mice.
Description: as §1

In series [2] the test system is human hematopoietic progenitors. Briefly: In vitro human bone marrow colony forming unit (CFU) formation assay. The format is cell-based. To be noted: for BFU-E / CFU-GEMM / CFU-GM / TOTAL CFC (Colony Forming Cells): tricaprin 10%; for increase in BFU-E colonies formation / increase in the number of CFU-GEMM: versus control. The method, then:
Bone marrow cells were obtained from the sternum of various cancer patients. Cells were washed with PBS and resuspended at a concentration of 2×10^6 cells per ml. Cells were cultured in RPMI/FBS or Myelocult (Stem cell technology, Vancouver)/FBS media in the presence or the absence of tricaprin for 5 days at 37° C. After incubation, cells were harvested, washed and counted. Based on the viable cells count, the cells were resuspended at a concentration of 5×10^5 cells per ml in IMDM media supplemented with 2% FBS. From these cells, four replicates of 2.5×10^4 cells per dish were plated in Methocult medium so that a colony forming unit (CFU) formation assay could be undertaken. CFU-GM, CFU-GEMM and BFU-E were recorded after 14 to 16 days culture.

For a further series, the system named is human bone marrow cells. Nature of the series: In vitro human bone marrow cell proliferation ([3H]-thymidine incorporation). The series is classed as cell-based. The method, then: Bone marrow cells were obtained from the sternum of cancer patients. Cells were washed with PBS and resuspended at a concentration of 2×10^6 cells per ml. Cells were cultured in RPMI/FBS media in the presence or the absence of tricaprin or tricaprylin for 48 and 72 hours at 37° C. After incubation, cells were pulsed with 1 μCi of [^3H]-thymidine for 6 hours. Plates were harvested on a Tomteck and counted on a Microbeta β-counter. Incorporation of [^3H]-thymidine in the DNA is a direct indication of the cell proliferation.
For orientation: Uptake of a labelled nucleoside into DNA is a usual measure of proliferation.

Where [3] appears, read: cyclophosphamide (CY) 200 mg/kg i.v. day 0 plus compound given orally as pre-treatment.
Setting [4] is: normal mice, bone marrow cells in Methocult.
Where [5] appears, read: phenylhydrazine-induced anemia mice (60 mg/kg i.p.).
Where [6] appears, read: single agent (GM-CSF at high concentration, 1 μg/kg).
Setting [7] is: Myelocult/FBS medium, Experiment 1.
[8] abbreviates: Myelocult/FBS medium, Experiment 2.

Entries after “also recorded” stand apart in the source; their conditions may differ. Like-named read-outs stand apart in the source and are kept apart here.

For `O=P1(N(CCCl)CCCl)NCCCO1` (stereo not shown) [CY, cyclophosphamide, reference compound], the “Gross pathological observations: Bone Marrow Color” value (“Gross pathological observations” for short) in series [1] (cyclophosphamide (CY) 200 mg/kg i.v. day 0 alone) is “White, almost translucent”.
For `CCCCCCCCCC(=O)O` [capric acid], the “spleen red cell count” value in the series on spleen red cell (oral pre-treatment) is recorded as “significant increase”. Besides, in series [1] (setting [3]), the “Gross pathological observations” value is “Red”. Also, the “appearance of the femur (bone marrow)” value in series [1] is “same results”.
As for `CCCCCCCCCC(=O)[O-].[Na+]` [sodium caprate], in the series with peripheral blood cell, the “number of peripheral blood cell” value is “significant increase”. Further, in the series with bone marrow cells (setting [4]), the “number of CFU-E” value is “enhances” and the “number of CFU-GEMM” value was “enhances”. In the series on bone marrow cells (setting [5]), the CFU-E entry is given as “strong increase”, the CFU-GEMM result was “strong increase” and the CFU-GM entry is listed as “strong increase”. Besides, in the series on bone marrow red cell (in combination with GM-CSF), the “bone marrow red cell count” value is “additive increase”. In the series on bone marrow red cell (setting [6]), the “bone marrow red cell count” value is “significant increase”. Also, the “spleen red cell count” value in the series on spleen red cell (intravenous pre-treatment) was “significant increase; also recorded: increases the spleen red cell counts to the baseline level of control mice”. Besides, in the series on spleen red cell (oral pre-treatment), the “spleen red cell count” value was “significant increase”. In addition, in series [1] (setting [3]), the “Gross pathological observations” value is “Red”. Moreover, the “appearance of the femur (bone marrow)” value in series [1] is “same results”.
Turning to `CCCCCCCCCC(=O)OCC(COC(=O)CCCCCCCCC)OC(=O)CCCCCCCCC` [tricaprin], in the series with spleen red cell (oral pre-treatment), the “spleen red cell count” value was “significant increase”. Moreover, the BFU-E in series [2] (setting [7]) is reported as 380; in series [2] (setting [8]) it was 268; in series [2] (RPMI/FBS medium, Experiment 1), 130; in series [2] (RPMI/FBS medium, Experiment 2), 121. In addition, the CFU-GEMM in series [2] (setting [7]) was found to be 4.75; in series [2] (setting [8]), 4.25; in series [2] (RPMI/FBS medium, Experiment 1), 4.75; in series [2] (RPMI/FBS medium, Experiment 2), 4. Moreover, the CFU-GM in series [2] (setting [7]) stood at 17; in series [2] (setting [8]), 34; in series [2] (RPMI/FBS medium, Experiment 1) it was 26; in series [2] (RPMI/FBS medium, Experiment 2) it was 25. Moreover, the “TOTAL CFC (Colony Forming Cells)” value is on record as 401 in series [2] (setting [7]); 306 in series [2] (setting [8]); 161 in series [2] (RPMI/FBS medium, Experiment 1); 150 in series [2] (RPMI/FBS medium, Experiment 2). Also, the “increase in BFU-E colonies formation” value in series [2] (Myelocult/FBS medium) is listed as “up to 6 times”; in series [2] (RPMI/FBS medium) it was “up to 13 times”. Moreover, the “increase in the number of CFU-GEMM” value is “up to 2 times” in series [2] (Myelocult/FBS medium) and “up to 3 times” in series [2] (RPMI/FBS medium). In addition, the “Gross pathological observations” value in series [1] (setting [3]) is reported as “Red”. Moreover, the “appearance of the femur (bone marrow)” value in series [1] is “same results”. The entries for the “bone marrow proliferation in combination with erythropoietin (EPO)” value in the series with human bone marrow cells (48 hours) and in the series with human bone marrow cells (72 hours) were “additive” and “synergistic”, respectively.
Regarding `CCCCCCCC(=O)OCC(COC(=O)CCCCCCC)OC(=O)CCCCCCC` [tricaprylin], the “Gross pathological observations” value in series [1] (setting [3]) is listed as “Red”. The “appearance of the femur (bone marrow)” value in series [1] is “same results”. Besides, the “bone marrow proliferation in combination with erythropoietin (EPO)” value in the series on human bone marrow cells (time not stated) is given as “synergistic increase”. Besides, in the series on human bone marrow cells (human bone marrow cells, RPMI/FBS, 48 and 72 hours, [3H]-thymidine), the “increase in bone marrow proliferation relative to the control” value came to 2 fold.
Consider “GM-CSF: GM-CSF, comparator growth factor used at 1 μg/kg”, for which the “bone marrow red cell count” value in the series with bone marrow red cell (setting [6]) was “significant increase”.

The values above are taken from US9682054B2, “Medium-chain length fatty acids, glycerides and analogues as stimulators of erythropoiesis” (PROMETIC PHARMA SMT LIMITED, priority 2003, dated 2017).
